Experimental data published in patent publication US12692261B2, “Substituted heterocyclic compounds and therapeutic uses thereof” (Bayer Aktiengesellschaft, priority 2020, dated 2026).

Tests used:
Format in all cases: biochemical
[1] = biological target: T1, full-length human CSNK1A1 (Homo sapiens, UniProt P48729); assay: CSNK1A1 High ATP Assay (ADP-Glo, 1 mM ATP); conditions: Table 3, read-out: CSNK1A1 high ATP assay IC50 [mol/l] (median);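 also: 30 min kinase reaction at 22 °C with 100 µM peptide substrate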
T1 construct: N-terminal Glutathion-S-Transferase (GST) and full-length human CSNK1A1; purchased Life Technologies PV4174; host or cells: baculovirus infected insect cells
Description: CSNK1A1-inhibitory activity of compounds of the present invention in presence of 1 mM adenosine-tri-phosphate (ATP) was quantified employing the CSNK1A1-high-ATP-assay as described in the following paragraphs. In essence, the enzyme activity is measured by quantification of the adenosine-di-phosphate (ADP), which is generated as a co-product of the enzyme reaction, via the “ADP-Glo™ Kinase Assay” kit from the company Promega. This detection system works as follows: In a first step the ATP not consumed in the kinase reaction is quantitatively converted to cAMP employing an adenylate cyclase (“ADP-Glo-reagent”), then the adenylate cyclase is stopped and the ADP generated in the kinase reaction converted to ATP which generates in a luciferase-based reaction a glow-luminescence signal (“Kinase Detection Reagent”).
(§1) Recombinant fusion protein of N-terminal Glutathion-S-Transferase (GST) and full-length human CSNK1A1, expressed by baculovirus infected insect cells and purified via Glutathion affinity chromatography, was purchased from Life Technologies (product no. PV4174) and used as enzyme. As substrate for the kinase reaction the biotinylated peptide biotin-Ahx-KRRRAL-pS-VASLPGL (C-terminus in amide form) was used which can be purchased e.g. from the company Biosyntan (Berlin-Buch, Germany).
For the assay 50 nl of a 100 fold concentrated solution of the test compound in DMSO was pipetted into a white low volume 384-well microtiter plate (Greiner Bio-One, Frickenhausen, Germany), 2 μL of a solution of CSNK1A1 in aqueous assay buffer [50 mM HEPES pH 7.5, 10% (v/v) glycerol, 10 mM MgCl2, 50 mM NaCl, 1 mM dithiothreitol, 0.01% (w/v) bovine serum albumin, 0.01% (v/v) Triton X-100] were added and the mixture was incubated for 15 min at 22° C. to allow pre-binding of the test compounds to the enzyme before the start of the kinase reaction. […] The concentration of CSNK1A1 was adjusted depending of the activity of the enzyme lot and was chosen appropriate to have the assay in the linear range, a typical concentration is about 0.4 ng/μL. The reaction was stopped by the addition of 2.5 μL of “ADP-Glo-reagent” (1:1.5 fold diluted with water) and the resulting mixture was incubated at 22° C. for 1 h to convert the ATP not consumed in the kinase reaction completely […]. Subsequently 2.5 μL of the “kinase detection reagent” (1.2 fold more concentrated than recommended by the producer) were added, the resulting mixture was incubated at 22° C. for 1 h and then the luminescence measured with a suitable measurement instrument (e.g. Viewlux™ from Perkin-Elmer). The amount of emitted light was taken as a measure for the amount of ADP generated and thereby for the activity of the CSNK1A1.

[2] = biological target: T2, full-length human CSNK1D (Homo sapiens, UniProt P48730); assay: CSNK1D Assay (ADP-Glo, 1 μM ATP); conditions: Table 3, read-out: CSNK1D IC50 [mol/l] (median)
T2 construct: N-terminal Glutathion-S-Transferase (GST) and full-length human CSNK1D; purchased Life Technologies PV3665; host or cells: baculovirus infected insect cells
Description: CSNK1D-inhibitory activity of compounds of the present invention in presence of 1 μM adenosine-tri-phosphate (ATP) was quantified employing the CSNK1 D assay as described in the following paragraphs. In essence, the enzyme activity is measured by quantification of the adenosine-di-phosphate (ADP), which is generated as a co-product of the enzyme reaction, via the “ADP-Glo™ Kinase Assay” kit from the company Promega. This detection system works as follows: In a first step the ATP not consumed in the kinase reaction is quantitatively converted to cAMP employing an adenylate cyclase (“ADP-Glo-reagent”), then the adenylate cyclase is stopped and the ADP generated in the kinase reaction converted to ATP which generates in a luciferase-based reaction a glow-luminescence signal (“Kinase Detection Reagent”).
as §1, with “CSNK1D,” for “CSNK1A1,”, “PV3665)” for “PV4174)”, “Btn-Ahx-[…]” for “biotin-Ahx-KRRRAL-pS-VASLPGL”
For the assay 50 nl of a 100 fold concentrated solution of the test compound in DMSO was pipetted into a white 1536-well microtiter plate (Greiner Bio-One, Frickenhausen, Germany), 2 μL of a solution of CSNK1D in aqueous assay buffer [50 mM HEPES pH 7.5, 10% (v/v) glycerol, 10 mM MgCl2, 50 mM NaCl, 1 mM dithiothreitol, 0.01% (w/v) bovine serum albumin, 0.01% (v/v) Triton X-100] were added and the mixture was incubated for 15 min at 22° C. to allow pre-binding of the test compounds to the enzyme before the start of the kinase reaction. […] The concentration of CSNK1D was adjusted depending of the activity of the enzyme lot and was chosen appropriate to have the assay in the linear range, a typical concentration is about 0.5 ng/μL. The reaction was stopped by the addition of 2.5 μL of “ADP-Glo-reagent” (1:1.5 fold diluted with water) and the resulting mixture was incubated at 22° C. for 1 h to convert the ATP not consumed in the kinase reaction completely […]. Subsequently 2.5 μL of the “kinase detection reagent” (1.2 fold more concentrated than recommended by the producer) were added, the resulting mixture was incubated at 22° C. for 1 h and then the luminescence measured with a suitable measurement instrument (e.g. Viewlux™ from Perkin-Elmer). The amount of emitted light was taken as a measure for the amount of ADP generated and thereby for the activity of the CSNK1D.

[3] = biological target: T1, full-length human CSNK1A1; assay: CSNK1A1 Assay 2 (ADP-Glo, 1 μM ATP, substrate biotin-Ahx-KRRRAL-pS-VASLPGL); conditions: Table 3, read-out: CSNK1A1 Assay 2 IC50 [mol/l] (median)
Description: CSNK1A1-inhibitory activity of compounds of the present invention in presence of 1 μM adenosine-tri-phosphate (ATP) was quantified employing the CSNK1A1 assay as described in the following paragraphs. In essence, the enzyme activity is measured by quantification of the adenosine-di-phosphate (ADP), which is generated as a co-product of the enzyme reaction, via the “ADP-Glo™ Kinase Assay” kit from the company Promega. This detection system works as follows: In a first step the ATP not consumed in the kinase reaction is quantitatively converted to cAMP employing an adenylate cyclase (“ADP-Glo-reagent”), then the adenylate cyclase is stopped and the ADP generated in the kinase reaction converted to ATP which generates in a luciferase-based reaction a glow-luminescence signal (“Kinase Detection Reagent”).
as §1
For the assay 50 nl of a 100 fold concentrated solution of the test compound in DMSO was pipetted into a white 1536-well microtiter plate (Greiner Bio-One, Frickenhausen, Germany), 2 μL of a solution of CSNK1A1 in aqueous assay buffer [50 mM HEPES pH 7.5, 10% (v/v) glycerol, 10 mM MgCl2, 50 mM NaCl, 1 mM dithiothreitol, 0.01% (w/v) bovine serum albumin, 0.01% (v/v) Triton X-100] were added and the mixture was incubated for 15 min at 22° C. to allow pre-binding of the test compounds to the enzyme before the start of the kinase reaction. […] The concentration of CSNK1A1 was adjusted depending of the activity of the enzyme lot and was chosen appropriate to have the assay in the linear range, a typical concentrations are about 0.0375 ng/μL. The reaction was stopped by the addition of 2.5 μL of “ADP-Glo-reagent” (1:1.5 fold diluted with water) and the resulting mixture was incubated at 22° C. for 1 h to convert the ATP not consumed in the kinase reaction completely […]. Subsequently 2.5 μL of the “kinase detection reagent” (1.2 fold more concentrated than recommended by the producer) were added, the resulting mixture was incubated at 22° C. for 1 h and then the luminescence measured with a suitable measurement instrument (e.g. Viewlux™ from Perkin-Elmer). The amount of emitted light was taken as a measure for the amount of ADP generated and thereby for the activity of the CSNK1A1.

T2 sequence (P48730 whole entry): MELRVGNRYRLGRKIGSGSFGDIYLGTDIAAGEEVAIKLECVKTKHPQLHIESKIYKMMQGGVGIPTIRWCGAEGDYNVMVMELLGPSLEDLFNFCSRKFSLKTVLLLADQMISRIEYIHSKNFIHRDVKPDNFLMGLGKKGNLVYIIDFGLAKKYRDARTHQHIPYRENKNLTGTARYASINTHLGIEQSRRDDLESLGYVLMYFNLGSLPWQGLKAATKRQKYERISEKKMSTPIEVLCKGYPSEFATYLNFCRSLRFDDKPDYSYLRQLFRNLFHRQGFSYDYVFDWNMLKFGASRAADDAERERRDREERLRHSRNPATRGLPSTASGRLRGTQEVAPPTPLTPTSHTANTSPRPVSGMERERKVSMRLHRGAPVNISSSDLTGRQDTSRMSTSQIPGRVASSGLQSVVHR
T1 sequence (P48729 whole entry): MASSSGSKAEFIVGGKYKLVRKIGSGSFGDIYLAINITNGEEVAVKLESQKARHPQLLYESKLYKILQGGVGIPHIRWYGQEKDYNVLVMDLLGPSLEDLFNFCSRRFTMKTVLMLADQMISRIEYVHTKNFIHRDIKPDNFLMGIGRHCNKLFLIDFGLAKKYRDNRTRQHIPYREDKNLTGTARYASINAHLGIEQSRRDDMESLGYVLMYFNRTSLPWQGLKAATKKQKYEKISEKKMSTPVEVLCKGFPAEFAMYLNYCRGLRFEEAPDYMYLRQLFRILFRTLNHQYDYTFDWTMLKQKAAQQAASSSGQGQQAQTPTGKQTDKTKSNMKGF

| Compound | IC50 [1] | IC50 [2] | IC50 [3] |
| --- | --- | --- | --- |
| O=C(Nc1cc(-c2[nH]c3c(OC4CC4)cc(F)nc3c2-c2ccccn2)ccn1)C(CC(F)F)c1ccc(F)cc1 (single isomer, unassigned) [Example 44, N-{4-[7-(cyclopropyloxy)-5-fluoro-3-(pyridin-2-yl)-1H-pyrrolo[3,2-b]pyridin-2-yl]pyridin-2-yl}-4,4-difluoro-2-(4-fluorophenyl)butanamide] | 6.02 nM | 5.31 nM | 6.02 nM |
| COCCOc1cc(F)nc2c(-c3ccccn3)c(-c3ccnc(NC(=O)C(CC(F)F)c4ccc(F)cc4)c3)[nH]c12 (single isomer, unassigned) [Example 90, (2R or S)-4,4-difluoro-N-{4-[5-fluoro-7-(2-methoxyethoxy)-3-(pyridin-2-yl)-1H-pyrrolo[3,2-b]pyridin-2-yl]pyridin-2-yl}-2-(4-fluorophenyl)butanamide] | 2.43 nM | 2.5 nM | 2.43 nM |
| COCCOc1cc(F)nc2c(-c3ccccn3)c(-c3ccnc(NC(=O)C(CC(F)F)c4ccc(F)cc4)c3)[nH]c12 (single isomer, unassigned) [Example 91, (2R or S)-4,4-difluoro-N-{4-[5-fluoro-7-(2-methoxyethoxy)-3-(pyridin-2-yl)-1H-pyrrolo[3,2-b]pyridin-2-yl]pyridin-2-yl}-2-(4-fluorophenyl)butanamide] | 9.57 nM | 23.4 nM | 9.57 nM |
| O=C(Nc1cc(-c2[nH]c3nc(OC(F)F)cnc3c2-c2ccccn2)ccn1)C(CC(F)F)c1ccc(F)cc1 (single isomer, unassigned) [Example 106, N-{4-[3-(difluoromethoxy)-7-(pyridin-2-yl)-5H-pyrrolo[2,3-b]pyrazin-6-yl]pyridin-2-yl}-4,4-difluoro-2-(4-fluorophenyl)butanamide] | 4.32 nM | 6.1 nM | 4.32 nM |
| O=C(Nc1cc(-c2[nH]c3nc(OC(F)F)cnc3c2-c2ccccn2)ccn1)C(CC(F)F)c1ccc(F)cc1 (single isomer, unassigned) [Example 107, N-{4-[3-(difluoromethoxy)-7-(pyridin-2-yl)-5H-pyrrolo[2,3-b]pyrazin-6-yl]pyridin-2-yl}-4,4-difluoro-2-(4-fluorophenyl)butanamide] | 64.6 nM | 117 nM | 64.6 nM |
| Cc1cc(F)nc2c(-c3ccccn3)c(-c3ccnc(NC(=O)C(CC(F)F)c4ccc(F)cc4)c3)[nH]c12 (single isomer, unassigned; (+)) [Example 37, (+)-4,4-difluoro-N-{4-[5-fluoro-7-methyl-3-(pyridin-2-yl)-1H-pyrrolo[3,2-b]pyridin-2-yl]pyridin-2-yl}-2-(4-fluorophenyl)butanamide] | 3.97 nM | 8.32 nM | 3.97 nM |
| O=C(Nc1cc(-c2[nH]c3cc(Cl)cnc3c2-c2ccccn2)ccn1)C(CC(F)F)c1ccc(F)cc1 (stereo not drawn) [Example 87, N-{4-[6-chloro-3-(pyridin-2-yl)-1H-pyrrolo[3,2-b]pyridin-2-yl]pyridin-2-yl}-4,4-difluoro-2-(4-fluorophenyl)butanamide] | 6.08 nM | 10.8 nM | 6.08 nM |
| O=C(Nc1cc(-c2[nH]c3ccc(F)nc3c2-c2ccc(F)cn2)ccn1)C(CC(F)F)c1ccc(F)cc1 (stereo not drawn) [Example 108, 4,4-difluoro-N-{4-[5-fluoro-3-(5-fluoropyridin-2-yl)-1H-pyrrolo[3,2-b]pyridin-2-yl]pyridin-2-yl}-2-(4-fluorophenyl)butanamide] | 4.55 nM | 5.93 nM | 4.55 nM |
